According to US20010049441A1, “Azaindoles having serotonin receptor affnity” (Allelix Biopharmaceuticals, Inc., priority 1999, published 2001):

What was measured:
5-HT6 receptor [1] = molecular target: T1, 5-HT6 receptor (Homo sapiens, UniProt P50406); test: Binding affinity for the 5-HT6 receptor (3H-LSD displacement, membranes of recombinant cells); conditions: 100 nM of test compound; 3H-LSD (2 nM); 60 minute incubation at 37° C.; read-out: percent inhibition of binding of the radioligand for the 5-HT6 receptor
T1 construct: expressed in transfected cells
Description: All of the compounds of the invention were evaluated using cell types receptive specifically to the 5-HT6 receptor (for cloning and characterization of the human 5-HT6 receptor see Kohen, et al. J. Neurochemistry, 66, 1996: 47-56). The assay protocol generally entailed the incubation of membranes prepared from cells expressing the 5-HT6 receptor with ^3H-LSD (2 nM). Increasing levels of the test compound were incubated with the radioligand and the membrane homogenates prepared from the recombinant cells. After a 60 minute incubation at 37° C., the incubation was terminated by vacuum filtration. The filters were washed with buffer and the filters were counted for radioactivity using liquid scintillation spectrometry. The affinity of the test compound for the 5-HT6 receptor was determined by computer-assisted analysis of the data and determining the amount of the compound necessary to inhibit 50% of the binding of the radioligand to the receptor. Concentrations ranging from 10^−11 M to 10^−5 M of the test compound were evaluated. […] Affinity for the 5-HT6 receptor is expressed as the amount (in percent) of binding of the radioligand that is inhibited in the presence of 100 nM of test compound. A greater percent inhibition indicates greater affinity for the 5-HT6 receptor.

5-HT6 receptor [2] = molecular target: T1, 5-HT6 receptor; test: Functional assay: serotonin-induced adenyl cyclase activity (cAMP) in HEK 293 cells; assay type: cell-based; conditions: HEK 293 cells stably expressing human 5HT6 receptor; test compound (100 nM and 10 μM) along with serotonin; cAMP by EIA
Description: The 5HT6 receptor responds to serotonin and other agonists by increasing adenyl cyclase mediated production of cyclic AMP. Particular test compounds were assayed for their effect on adenyl cyclase activity using the procedure described below.
Compounds acting as antagonists at the 5HT6 receptor will antagonize the agonist effect of serotonin and thus, will block the serotonin-induced increase in adenyl cyclase activity.
HEK 293 cells stably expressing the human 5HT6 receptor were plated in 6 well plates in DMEM (Dulbecco's Modified Eagle Medium)/F12 (Nutrient Mixture F12—Ham) media with 10% FCS (fetal calf serum) and G418 (Geneticen Disulfate, 500 ug/ml), and incubated at 37° C. in a CO2 incubator. The cells were allowed to grow to about 70% confluence before use in the assay.
The culture medium of each well was removed, and the wells were washed once with serum free media. Then 2 ml of SFM+IBMX medium (SFM with 0.5 mM IBMX, 3-isobutyl-1-methylxanthine, 0.1% ascorbic acid and 10 mM pargyline) was added to each well and the wells were incubated at 37° C. for 10 min. Following incubation, the SFM+IBMX medium was removed from each well and fresh SFM+IBMX media was added to the wells separately with one of a) serotonin (1 μM final concentration); b) test compound (100 nM and 10 μM, to test for agonist activity); and c) test compound (100 nM and 10 μM) along with serotonin ([…], to test for antagonist activity). Basal adenyl cyclase activity was determined from wells with only SFM+IBMX media added.
The cells were then incubated at 37° C. for 30 minutes in a CO2 incubator. […] The pellets were discarded and the supernatants were stored at 4° C. until assayed for cAMP concentration. cAMP content for each extract was determined in duplicate by EIA (enzyme-immunoassay) using the Amersham Biotrak cAMP EIA kit (Amersham RPN 225). Final results were expressed as %basal response for agonists and % reversal of serotonin response for antagonists.
The total stimulation of adenyl cyclase by serotonin (So) was determined as the difference in concentration of cAMP in the serotonin-treated cells (Cd) and the basal-treated cells (Cf).
The net stimulation (S) of basal adenyl cyclase by an agonist test compound was determined as the difference in cAMP concentration in the drug-treated cell (C) and the basal-treated cells (Cf).
The net stimulation (Ss) of basal adenyl cyclase by serotonin in the presence of an antagonist test compound was determined as the difference in cAMP concentration in the serontonin-drug-treated cells (Cs) and the basal-treated cells (Cf).
The ability of the antagonist test compound to reverse the serotonin stimuation of adenyl cyclase activity (% reversal, %R) was determined by the formula: […]

T1 sequence (P50406 whole entry): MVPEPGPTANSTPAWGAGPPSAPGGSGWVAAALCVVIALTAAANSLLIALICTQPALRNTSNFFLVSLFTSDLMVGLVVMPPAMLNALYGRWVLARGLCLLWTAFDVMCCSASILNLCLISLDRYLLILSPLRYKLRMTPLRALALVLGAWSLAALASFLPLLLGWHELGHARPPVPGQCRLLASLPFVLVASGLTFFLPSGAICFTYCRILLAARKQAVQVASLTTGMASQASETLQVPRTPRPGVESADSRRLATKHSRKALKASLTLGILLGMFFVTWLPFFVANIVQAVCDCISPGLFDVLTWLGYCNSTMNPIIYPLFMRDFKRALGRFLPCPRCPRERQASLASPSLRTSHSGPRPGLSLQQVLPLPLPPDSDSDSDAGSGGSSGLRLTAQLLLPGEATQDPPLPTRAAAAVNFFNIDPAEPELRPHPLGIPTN

Compound | inhibition at 0.1 µM (5-HT6 receptor [1]) | reversal of serotonin stimulation of adenyl cyclase (5-HT6 receptor antagonist behaviour) (5-HT6 receptor [2])
O=S(=O)(c1cccc2ccccc12)n1cc(C2CCN3CCCC3C2)c2ccncc21 (single isomer, unassigned) [3-(Octahydro-7-indolizinyl)-1-(1-naphthalenesulfonyl)-6-azaindole] | > 80% | 
O=S(=O)(c1ccc2ccccc2c1)n1cc(C2CCN3CCCC3C2)c2cccnc21 (single isomer, unassigned) [3-(Octahydro-7-indolizinyl)-1-(2-naphthalenesulfonyl)-7-azaindole] | > 80% | 
O=C(c1c(Cl)cccc1Cl)n1cc(C2=CCN3CCCC3C2)c2cccnc21 (stereo not shown) [1-(2,6-Dichlorobenzoyl)-3-(1,2,3,5,8,8a-hexahydro-7-indolizinyl)-7-azaindole] | > 80% | 
O=S(=O)(c1cccc2ccccc12)n1cc(C2=CCN3CCCC3C2)c2cnccc21 (stereo not shown) [3-(1,2,3,5,8,8a-Hexahydro-7-indolizinyl)-1-(1-naphthalenesulfonyl)-5-azaindole] | > 95% | able to reverse the serotonin stimulation of adenyl cyclase
O=S(=O)(c1cccc2ccccc12)n1cc(C2=CCN3CCCC3C2)c2cccnc21 (stereo not shown) [3-(1,2,3,5,8,8a-Hexahydro-7-indolizinyl)-1-(1-naphthalenesulfonyl)-7-azaindole] |  | able to reverse the serotonin stimulation of adenyl cyclase
O=S(=O)(c1ccc2ccccc2c1)n1cc(C2=CCN3CCCC3C2)c2cccnc21 (stereo not shown) [3-(1,2,3,5,8,8a-Hexahydro-7-indolizinyl)-1-(2-naphthalenesulfonyl)-7-azaindole] | > 90% | 
Cc1ccc(S(=O)(=O)n2cc(C3=CCN4CCCC4C3)c3cnccc32)cc1 (stereo not shown) [3-(1,2,3,5,8,8a-Hexahydro-7-indolizinyl)-1-(4-methylbenzenesulfonyl)-5-azaindole] | > 80% | 
O=S(=O)(c1ccccc1)n1cc(C2=CCN3CCCC3C2)c2cnccc21 (stereo not shown) [3-(1,2,3,5,8,8a-Hexahydro-7-indolizinyl)-1-benzenesulfonyl-5-azaindole] | > 90% | able to reverse the serotonin stimulation of adenyl cyclase
O=S(=O)(c1ccccc1)n1cc(C2=CCN3CCCC3C2)c2cccnc21 (stereo not shown) [3-(1,2,3,5,8,8a-Hexahydro-7-indolizinyl)-1-benzenesulfonyl-7-azaindole] |  | able to reverse the serotonin stimulation of adenyl cyclase
O=S(=O)(c1cccc2ccccc12)n1cc(C2CCN3CCCC3C2)c2ncccc21 (stereo not shown) [3-(Octahydro-7-indolizinyl)-1-(1-naphthalenesulfonyl)-4-azaindole] | > 80% | 
O=S(=O)(c1ccc2ccccc2c1)n1cc(C2CCN3CCCC3C2)c2ncccc21 (stereo not shown) [3-(Octahydro-7-indolizinyl)-1-(2-naphthalenesulfonyl)-4-azaindole] | > 95% | 
